# Source: patent publication US20210255205A1, “COMPOSITIONS AND METHODS FOR TREATING METABOLIC DISEASE” (THE REGENTS OF THE UNIVERSITY OF CALIFORNIA, priority 2018, published 2021)
# pKd: −log10 of the molar value.
# Legend:
# [1] = system: ASTER domain from Aster-B; test: 22-NBD-cholesterol binding competition with sterols, Aster-B; conditions: competitor 10 μM
# Procedure: FIG. 1E: Aster-B334-562 (1-10 μM) was titrated with 10-3000 nM 22-NBD-cholesterol in PBS and fluorescent ligand-binding assays were performed. […] FIG. 1G: Aster-B334-562 was titrated with 22-NBD-cholesterol in the presence of vehicle, estradiol, or various hydroxycholesterol (HC) sterol competitors as indicated (10 μM). Results values are means±SD.
# Fluorescent sterol binding assays were carried out as previously described (Petrescu et al., 2001; Wei et al., 2016) in 384-well black flat-bottom plates and equilibrated at room temperature for 1 hour. Measurements were made using a CLARIOstar (BMG LABTECH) microplate reader. The NBD fluorophore was excited with 1(ex)=470 nm and 1(em)=525 and plotted using Prism software. Dissociation constants (KD) were determined by nonlinear regression analysis of dose-response curves.
# Aster-A (FIG. 15A), B (FIG. 15B) and C (FIG. 15C) was titrated with 22-NBD-cholesterol in the presence of vehicle or various HC sterol competitors as indicated (3 μM). […] Results values are means±SD.
# [2] = system: Gramd1b; test: Gramd1b gene expression by real-time PCR in macrophages; format: cell-based; conditions: wild-type (WT) but not LXR-null mouse macrophages; 1 μM, 16 h
# Text: Values are means±SEM. Results are representative of three independent experiments. […] Input (Ctrl) served as a control for LXR enrichment. […] FIG. 1D: […] Values are means±SEM. FIG. 1E: […] FIG. 1F: […] Results values are means±SD. FIG. 1G: […] Results values are means±SD. FIG. 1H: […] Values are means±SEM. Total RNA was isolated using TRIzol reagent (Invitrogen) and reverse transcribed with the iScript cDNA synthesis kit (Biorad). cDNA was quantified by real-time PCR using SYBR Green Master Mix (Diagenode) on an ABI 7900 instrument. Gene expression levels were determined by using a standard curve. Each gene was normalized to the housekeeping gene 36B4 and was analyzed in duplicate. Primers used for real-time PCR are available upon request. […] Gramd1b was induced by a synthetic LXR agonist in wild-type (WT) but not LXR-null mouse macrophages (FIG. 1A). […] Gramd1b belongs to a family of highly-conserved genes, which have been designated Gramd1a, -b, and -c in databases. One-to-one orthologs of Gramd1b are present in all vertebrate classes (FIG. 2A). The predicted amino acid sequence of the human protein is 78% identical to that from Oreochromis niloticus (nile tilapia). These genes have not previously been characterized; their structures are incorrectly annotated in databases; and the function of their protein products is unknown. […] The protein products are referred to as Aster-A, -B, and -C.
# [3] = system: 3T3-L1 cells; test: cholesteryl ester formation from [^3H]oleate after Aster-A ASO; format: cell-based, murine
# Procedure: FIG. 13A: Immunoblot analysis of membrane (top) and nuclear (bottom) protein levels in 3T3-L1 cells treated for 48 h with control or Aster-A-specific ASO and then for the indicated times with cyclodextrin-cholesterol. Calnexin was used as a membrane loading control and Lamin A/C as a nuclear loading control. FIG. 13B: Real-time PCR analysis of gene expression in 3T3-L1 cells treated for 48 h with control or Aster-A-specific ASO and then for the indicated times with cyclodextrin-cholesterol. ***p<0.001. FIG. 13C: Real-time PCR analysis of Abca1 expression in 3T3-L1 cells treated for 48 h with control or Aster-A-specific ASO and then for the indicated times with cyclodextrin-cholesterol. **p<0.01; ***p<0.001. […] Cells were incubated with [^3H]oleate for the indicated time, CE was isolated by TLC, and the incorporation of label into CE quantified by scintillation counting and normalized to protein (mg). *p<0.05; ***p<0.001. […] FIG. 13H: Serum corticosterone levels measured by ELISA in WT and Aster-B KO mice that were fed ad-lib or fasted overnight (˜16 hours). […]
# To assess the effects of Aster deficiency on CE production, cells were incubated in the presence of [^3H]oleate, treated with cyclodextrin-cholesterol complexes, and the incorporation of label into CE was quantified. […]
# [4] = system: 3T3-L1 cells; test: Aster-A ASO knockdown, SREBP-2 pathway and gene/protein expression; format: cell-based, murine
# Procedure: FIG. 13A: Immunoblot analysis of membrane (top) and nuclear (bottom) protein levels in 3T3-L1 cells treated for 48 h with control or Aster-A-specific ASO and then for the indicated times with cyclodextrin-cholesterol. Calnexin was used as a membrane loading control and Lamin A/C as a nuclear loading control. FIG. 13B: Real-time PCR analysis of gene expression in 3T3-L1 cells treated for 48 h with control or Aster-A-specific ASO and then for the indicated times with cyclodextrin-cholesterol. ***p<0.001. FIG. 13C: Real-time PCR analysis of Abca1 expression in 3T3-L1 cells treated for 48 h with control or Aster-A-specific ASO and then for the indicated times with cyclodextrin-cholesterol. **p<0.01; ***p<0.001. FIG. 13D: Time course of cholesteryl ester formation in 3T3-L1 fibroblasts treated with control or Aster-A-specific ASO for 48 h. Cells were incubated with [^3H]oleate for the indicated time, CE was isolated by TLC, and the incorporation of label into CE quantified by scintillation counting and normalized to protein (mg). *p<0.05; ***p<0.001. FIG. 13E: Expression levels of the indicated genes in adrenal glands from WT and Aster-B KO mice (mean±SEM; N=6-8 per group). Statistical analysis was performed using Student's t-test. Values are means±SEM. *p<0.05; **p<0.01; ***p<0.001; ****p<0.0001. FIG. 13F: Immunoblot analysis of membrane (top) and nuclear (bottom) protein levels in adrenals from WT and Aster-B KO mice (n=5). Calnexin was used as a membrane loading control and Lamin A/C as a nuclear loading control. FIG. 13G: Serum cholesterol levels in WT and Aster-B KO mice that were fasting for five h (mean±SEM; N=6 per group). FIG. 13H: Serum corticosterone levels measured by ELISA in WT and Aster-B KO mice that were fed ad-lib or fasted overnight (˜16 hours). N=4 per group. Statistical analysis was performed using Student's t-test. Values are mean±SEM. *p<0.05; **p<0.01; ***p<0.001; ****p<0.0001.
# Generation 2.5 constrained ethyl ASOs were synthesized as described previously (Seth et al., 2009). For in vitro knockdown studies, control or Aster-A ASO ([…] (SEQ ID NO: 13)) was used. Undifferentiated murine 3T3-L1 cells were plated in 10% FBS DMEM on Day 0. On Day 1 cells were washed and supplemented with 1% LPDS. Cells were then transfected with ASOs using Dharmafect 1 reagent per the manufacturer's recommendations for knockdown studies (Dharmacon, 50 nM final concentration). On Day 2, the medium was changed to fresh DMEM with 1% LPDS, simvastatin (5 μM) and mevalonate (50 μM). On Day 3 cells were treated as described in FIG. 7A and samples were collected. The rate of incorporation of [^3H]oleate into cholesteryl [^3H]oleate was performed on Day 3 as previously described (Goldstein et al., 1983).
# The consequence of loss of Aster function for sterol movement from the PM to the ER in cultured cells was investigated. Since Aster-B expression is minimal in most cultured cell lines, knockdown Aster-A expression, which is abundant 3T3-L1 cells, was chosen. When ER cholesterol levels rise, cells respond first by suppressing SREBP-2 cleavage (thereby blocking sterol synthesis) and second by activating ACAT-dependent CE synthesis. Cholesterol movement to the ER following exogenous delivery was assessed by measuring two endpoints: 1. the activity of the SREBP-2 pathway and 2. the formation of cholesterol esters. […] The fact that some suppression of the SREBP-2 pathway at later time points was still observed even with Aster-A ASO was not unexpected, since vesicular sterol transport pathways were presumably still operative.
# [5] = biological target: T1, Aster-B GRAM domain (Mus musculus, UniProt Q80TI0); test: protein-lipid overlay (PIP Strips); format: binding; conditions: lipid strip, 100 pmol lipid per spot
# T1 construct: B GRAM (Aster-B1-337) was conducted using PIP Strips (Echelon Biosciences); made in house; host or cells: Sf9 insect cells
# T1 sequence (Q80TI0 41-377 limits assumed): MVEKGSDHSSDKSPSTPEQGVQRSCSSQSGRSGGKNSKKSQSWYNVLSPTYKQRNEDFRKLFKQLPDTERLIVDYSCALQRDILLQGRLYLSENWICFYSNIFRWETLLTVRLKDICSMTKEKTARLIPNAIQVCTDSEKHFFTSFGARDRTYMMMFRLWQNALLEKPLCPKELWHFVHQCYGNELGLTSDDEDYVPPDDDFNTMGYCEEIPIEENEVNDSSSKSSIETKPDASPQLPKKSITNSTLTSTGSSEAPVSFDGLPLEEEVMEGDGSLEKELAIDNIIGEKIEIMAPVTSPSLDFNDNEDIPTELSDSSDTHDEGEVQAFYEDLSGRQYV
# Procedure: FIG. 9A: Protein-lipid overlay over purified mouse Aster-B GRAM domain with various phospholipid species. PA and PS correspond to phosphatidic acid and phosphatidylserine, respectively. FIG. 9A discloses “6xHis” as SEQ ID NO: 11. FIG. 9B: Purified Aster-B GRAM domain was incubated with sucrose-loaded heavy liposomes containing Dansyl-PE and 80-85% PC or 80-85% PS+/−5% Cholesterol. Liposomes were sedimented, washed, and analyzed by immunoblotting for associated Aster-B Gram protein (anti-His antibody). FIG. 9C: Localization of full-length and B ΔGRAM Aster-B-GFP constructs with plasma membrane (CellMask stain) expressed in HeLa cells in the presence or absence of cholesterol loading imaged by live cell confocal microscopy. […] FIG. 9E: Quantification of Aster-B PH-EGFP intensity in the TIRF plane upon cholesterol loading (left panel; n=2-3 cells, error bars+/−SD). […] TIRF videos recorded 5 slices (slices 3-5 were used to calculate FO) before cholesterol addition. […]
# The Aster proteins contain an N-terminal GRAM domain, a structural motif related to the pleckstrin homology domain that is found in glucosyltransferases, Rab-like GTPase activators, myotubularins, and other membrane-associated proteins. […] Given that phosphatidylserine is highly enriched in the inner leaflet of the PM, it was further determined if the Aster-B GRAM domain was associated with phosphatidylserine-containing liposomes.
# [6] = biological target: ASTER domains from Aster-A, -B, and -C; test: fluorescent NBD-cholesterol binding assay; parameters: species or system mouse; conditions: NBD-cholesterol 10-3,000 nM, ASTER-domain concentration constant; fit to a single exponential; average over the ASTER domains
# Procedure: For binding and transfer studies Aster domains (Aster-A261-576, Aster-B224-560, Aster-C206-528) were expressed by baculovirus in Sf-9 insect cells with an N-terminal FLAG tag and a C-terminal 6× His Tag (“6× His Tag” disclosed as SEQ ID NO: 11). Proteins were expressed with P3 baculovirus for 48 hours at 27° C. Cells were recovered by centrifugation, lysed by sonication. Insoluble material was pelleted at 16,000×g for 40 minutes. Soluble protein was first purified using a Ni-NTA column (Qiagen, 30210) and eluted with 250 mM imidazole PBS buffer after extensive washing. Following dialysis proteins were purified using FLAG M2 affinity gel (Sigma A2220) columns and eluted with 100 μg/mL 1× FLAG peptide after washing for ten column volumes. Proteins were then either dialyzed to remove the FLAG peptide or purified further by size exclusion chromatography.
# Fluorescent sterol binding assays were carried out as previously described (Petrescu et al., 2001; Wei et al., 2016) in 384-well black flat-bottom plates and equilibrated at room temperature for 1 hour. Measurements were made using a CLARIOstar (BMG LABTECH) microplate reader. The NBD fluorophore was excited with 1(ex)=470 nm and 1(em)=525 and plotted using Prism software. Dissociation constants (KD) were determined by nonlinear regression analysis of dose-response curves. […]
compound,measurement,setting,value
"CC(C)CCC[C@](C)(O)[C@H]1CC[C@H]2[C@@H]3CC=C4C[C@@H](O)CC[C@]4(C)[C@H]3CC[C@@]21C [20α-HC, 20α-hydroxycholesterol]",inhibition of binding of NBD-cholesterol to the ASTER domain from Aster-B,[1],inhibited
"O=C(O)Cc1cccc(OCCCN(Cc2cccc(C(F)(F)F)c2Cl)CC(c2ccccc2)c2ccccc2)c1 [synthetic LXR agonist, GW3965]",Gramd1b expression,[2],induced
CC(C)CCC[C@@H](C)[C@H]1CC[C@H]2[C@@H]3CC=C4[C@@H](O)[C@@H](O)CC[C@]4(C)[C@H]3CC[C@]12C [4β-hydroxycholesterol],inhibition of binding of NBD-cholesterol to the ASTER domain from Aster-B,[1],comparatively poor competitors
CC(C)CCC[C@@H](C)[C@H]1CC[C@H]2[C@@H]3[C@@H](O)C=C4C[C@@H](O)CC[C@]4(C)[C@H]3CC[C@]12C [7β-hydroxycholesterol],inhibition of binding of NBD-cholesterol to the ASTER domain from Aster-B,[1],comparatively poor competitors
"Aster-A-specific ASO: Generation 2.5 constrained ethyl ASO, GTGGAATTTATTCAGG (SEQ ID NO: 13) (Generation 2.5 constrained ethyl (cEt) ASO, modification pattern not given here)",rate at which cholesterol delivered to the PM was incorporated into CE,"[3]; [^3H]oleate, cyclodextrin-cholesterol",markedly slower
same,amount of CE formed relative to control cells,[3]; two hours after cholesterol addition,less than 25%
same,Gramd1a expression,"[4]; ASO 50 nM, 48 h",nearly abolished
same,LDLR protein levels,[4]; ASO 48 h,increased
same,SREBP-2 processing,[4]; ASO 48 h,induction
same,"expression of SREBP-2 target genes, including Hmcgr, and Hmgcs",[4]; ASO 48 h,increased
same,ability of exogenously added cyclodextrin-cholesterol to suppress SREBP-2 processing,[4]; Aster-A silenced cells,clearly delayed
same,expression of Abca1 (protein and mRNA),[4]; absence of Aster-A,reciprocally reduced
CC(C)CCC[C@@H](C)[C@H]1CC[C@H]2[C@@H]3CC=C4C[C@@H](O)CC[C@]4(C)[C@H]3CC[C@]12C [cholesterol],inhibition of binding of NBD-cholesterol to the ASTER domain from Aster-B,[1],inhibited
"CC(C)CC[C@@H](O)[C@@H](C)[C@H]1CC[C@H]2[C@@H]3CC=C4C[C@@H](O)CC[C@]4(C)[C@H]3CC[C@]12C [22R-HC, 22-R-hydroxycholesterol]",inhibition of binding of NBD-cholesterol to the ASTER domain from Aster-B,[1],inhibited
phosphatidic acid [phosphatidic acid (PA)],interaction with purified Aster-B GRAM domain,[5],interacted strongly
"C[C@H](CNc1ccc([N+](=O)[O-])c2nonc12)[C@H]1CC[C@H]2[C@@H]3CC=C4C[C@@H](O)CC[C@]4(C)[C@H]3CC[C@]12C [NBD-cholesterol, 22-NBD-cholesterol]",pKd,[6],> 7.00
"C[C@H](CCCC(C)(C)O)[C@H]1CC[C@H]2[C@@H]3CC=C4C[C@@H](O)CC[C@]4(C)[C@H]3CC[C@]12C [25-HC, 25-hydroxycholesterol]",inhibition of binding of NBD-cholesterol to the ASTER domain from Aster-B,[1],inhibited
CC(C)CC[C@H](O)[C@@H](C)[C@H]1CC[C@H]2[C@@H]3CC=C4C[C@@H](O)CC[C@]4(C)[C@H]3CC[C@]12C [22S-hydroxycholesterol],inhibition of binding of NBD-cholesterol to the ASTER domain from Aster-B,[1],comparatively poor competitors
